The source of these data is US12653799B2, “Compositions and methods for treating Alzheimer's disease” (ELEANORE BENNETT CHARITABLE TRUST #2, priority 2021, dated 2026).

Data set [1] deals with Akt Ser473 phosphorylation in rat primary cortical neurons. As to the kind of experiment: Non-amyloid insulin resistance model (palmitate/ceramide) in primary cortical neurons. The data set is classed as cell-based. The settings on record: palmitate 300 μM; PS48 100 nM, 24 hrs; insulin 20 nM. The procedure: FIG. 1B. Non-amyloid-based insulin resistance model. Partial restoration of insulin-induced Akt activation in rat primary cortical neurons exposed to the fatty acid neurotoxin palmitate (300 μM). […] . The same result was obtained in ceramide-treated (50 μM) primary neurons (not shown); *p<0.05). Representative western blot above, n=3 experiments.
SH-SY5Y were left undifferentiated.

Data set [2] relates to phospho-GSK (GSK3α/β) in SH-SY5Y cells. As to the kind of experiment: Cellular phospho-GSK levels in SH-SY5Y cells. Format: cell-based. Particulars: PS48 1 μM 0 to 2 hours; 0-100 μM 20 min. The protocol: FIG. 8B. PS48 over time (1 μM; 0 to 2 hours) and concentration (20 min; 0-100 μM) was applied to SH-SY5Y cells. No changes in cellular phospho-GSK levels were observed.

For data set [3], the system named is LTP in rat prefrontal cortical slices. As to the kind of experiment: Long term potentiation (LTP) in acute prefrontal cortical slices perfused with Aβ42 oligomers. Format: cell-based. Particulars: PS48 10 μM. The protocol:
FIG. 3A. […] LTP was measured as % baseline excitatory postsynaptic potential (EPSP) amplitudes. […] Washout restored LTP (4).
Minor modifications were made to previous published procedures (Marshall et al., 2017; Molina-Luna et al., 2009). Deeply anesthetized rats (pentobarbital, 50 mg/kg) were decapitated, their brains quickly removed and immersed in cold (5-7° C.), oxygenated (95% O2/5% CO2) artificial cerebrospinal fluid (ACSF) containing: 126 mM NaCl, 3 mM KCl, 1.25 mM NaH2PO4, 1 mM MgSO4, 2 mM CaCl2, 26 mM NaHCO3, 10 mM dextrose. […] Control treatment was DMSO in ACSF (artificial cerebrospinal fluid, 20 μM bicuculline). Extracellular postsynaptic field potentials were recorded using an AxoClamp2B amplifier (Axon instruments) and EX1 differential amplifier (Dagan), and digitized at 10 kHz. Data was acquired using Igor Pro (Wave Metrics) and Neuromatic (neuromatic.thinkrandom.com). The stimulus intensity eliciting 50% of the maximum amplitude (˜32 μA) was used for all measurements before and after LTP induction. Baseline amplitudes were recorded for 20-30 minutes using single field stimuli applied every 30 sec to layer IV-V using concentric bipolar electrodes. Following a stable baseline period, LTP was induced by two sets of high-frequency stimulation (HFS) at 100 Hz, 60 μA (twice stimulus intensity), for 1 sec, 20 sec apart. Extracellular postsynaptic field potentials were measured from layer II-III using glass micropipettes filled with 0.9% NaCl. The amplitude rather than the slope of evoked FPs was used as a measure of the population excitatory synaptic response because in the neocortex the initial slope was contaminated by antidromic stimulation. LTP values were expressed as percentage of mean baseline EPSP±SEM. Paired two-tailed t-tests were used for statistical analysis.
LTP was measured as % baseline excitatory postsynaptic potential (EPSP) amplitudes. […] Washout restored LTP.

A further data set relates to APP/PS-1 transgenic mice. As to the kind of experiment: Oral glucose tolerance test in APP/PS-1 transgenic mice. Format: in vivo, mouse. The settings on record: TG mice on standard diet, approximately 15.5 months; p<0.05. The protocol: At the end of phase 2 (active drug) trial, OGTT was administered to the standard diet animals. Animals were approximately 15.5 months at the time of the assay.

For another data set, the system named is C57BL/6 mice. As to the kind of experiment: Safety of intravenous PS48 over 2 weeks. The data set is classed as in vivo, mouse. The procedure: Finally, a series of in vivo experiments was performed to assess safety of treatment with PS48. […] Similarly, when PS48 was given by oral gavage over 2 weeks, there were no signs of toxicity by gross observation, organ specific necropsy, or weight.
For intravenous PS48, adult male C57BL/6 mice (Charles River, n=6 per group) were fed ad libitum and dosed with PS48 or vehicle in an escalating schedule from 3-20 mg/kg IV daily; 3-10 mg/kg days 1-6, and 20 mg/kg days 7-13. Tail vein blood sugars were obtained 30, 60, and 120 minutes after every third dose.
Liver transaminases ALT and AST, as well as muscle creatine kinase (CK), were also measured to assess possible liver toxicity and possible general tissue toxicity, respectively. A change in ALT, albeit statistically significant, was very small.

Data set [4] relates to CREB phosphorylation (pS133) in SH-SY5Y cells. The data set can be described thus: Endogenous p-CREB levels in Aβ42-expressing SH-SY5Y cells. Particulars: PS48 50 nM; insulin 250 ng/ml 30 min.
Experimental: Whole cell extracts were fractionated by Western and probed with monoclonal anti-pCREB pS133. […] All cells were stimulated with insulin 250 ng/ml for 30 min before harvest.

As to `O=C(O)/C=C(/CCc1ccc(Cl)cc1)c1ccccc1` [PS48, (Z)-5-(4-chlorophenyl)-3-phenylpent-2-enoic acid], the “inhibition of Akt Ser473 phosphorylation by palmitate” value in data set [1] is “partly reversed inhibition of Akt Ser473 phosphorylation by palmitate”. The “resting cellular pGSK levels” value in data set [2] is given as “no effect”. The “LTP (% baseline EPSP amplitude) inhibited by Aβ42 oligomers” value is listed as “significantly improved LTP” in data set [3] (Aβ42 ADDLs 0.5 μM, at the 1-hour mark after Aβ42 application) and “the beneficial effect had disappeared” in data set [3] (by 3 hours). Moreover, the “response to glucose challenge (OGTT)” value in the data set with APP/PS-1 transgenic mice is recorded as “helped to normalize the glucose response”. For the same compound, in the data set on C57BL/6 mice (3-20 mg/kg IV daily, 2-week trial), the behavioral changes result is recorded as “No behavioral changes”. Further, the “change in muscle creatine kinase (CK)” value with C57BL/6 mice (IV daily for 14 days) is recorded as “no significant change”. In the data set on C57BL/6 mice (IV daily for 14 days, statistically significant), the “change in ALT” value is listed as “very small”. The “mean body weight or mean blood sugars” value with C57BL/6 mice (IV, 3-20 mg/kg daily) is “no significant change”. The gross necropsy result in the data set on C57BL/6 mice (IV, after 14 days) is recorded as “no abnormalities”. For the same compound, the “p-CREB (pS133) levels reduced by Aβ42 expression” value in data set [4] is listed as “mitigated the Aβ42 effect”.
